Source: US20250034168A1, “NITROGEN-CONTAINING HETEROCYCLIC DERIVATIVE PARP INHIBITOR AND USE THEREOF” (XIZANG HAISCO PHARMACEUTICAL CO., LTD., priority 2021, published 2025)

What was measured:
[1] = system: MDA-MB-436 cells; assay: MDA-MB-436 cell activity test; type: cell-based; conditions: Homo sapiens
Experimental: Breast tumor cells MDA-MB-436 were purchased from ATCC, the culture medium was Leibovitz's L-15+10% FBS, and the cells were cultured in a CO2-free incubator at 37° C. On day 1, the cells in the exponential growth phase were collected, and the cell suspension was adjusted to 4000 cells/135 μL with the culture medium. 135 μL of the cell suspension was added to each well of a 96-well cell culture plate and incubated overnight. On day 2, compounds at different concentrations were added, and the plate was placed in the incubator and incubated for 7 days. After the incubation was completed, according to operation instructions for a CellTiter-Glo kit (Promega, G7573), 75 μL of CTG solution, which was already pre-melted and equilibrated to room temperature, was added to each well, and the mixture was uniformly mixed for 2 min using a microplate shaker. The plate was placed at room temperature for 10 min, and then […] were measured using an Envision2104 plate reader (PerkinElmer). The inhibition rate was calculated using formula (1), where RLUcompound was the readout of the drug treated group, RLUcontrol was the average value of the vehicle control group, and RLUblank was the average value of the cell-free well. The IC50 value was calculated using GraphPad Prism software.

[2] = target: PARP7 (Homo sapiens (Human), UniProt Q7Z3E1); assay: PARP7 enzyme activity test; type: biochemical
Experimental: PARP2 and PARP7 chemical […] detection kits were both purchased from BPS Bioscience. The histone solution in the kit was diluted 5× with 1×PBS, and 25 μL of the diluted histone solution was added to a microwell plate and incubated overnight at 4° C. After the incubation, the plate was washed three times with PBST (0.05% Tween-20). 100 μL of the blocking solution was added to the microwell plate and incubated at 25° C. for 90 minutes. After the incubation, the plate was washed three times with PBST. 2.5 μL of compound 4 diluted in test buffer and 5 μL of substrate mixed solution were added to the microwell plate. 5 μL of the diluted PARP enzyme was added to the microwell plate, and the reaction system was incubated at 25° C. for 60 minutes.
After the incubation, the plate was washed three times with PBST. Streptavidin-HRP was diluted 50× with a blocking solution, and 25 μL of the diluent was added to the microwell plate and incubated at 25° C. for 30 minutes. After the incubation, the plate was washed three times with PBST. ELISA ECL substrate A and substrate B were mixed at a ratio of 1:1 (v/v), 25 μL of the mixture was added to the microwell plate, and the chemiluminescence value was read. […]

[3] = Pharmacokinetic test in rats; type: in vivo, SD rats
Experimental: (§1) • 5.1.1 Experimental animals: male SD rats, about 220 g, 6-8 weeks old, 6 rats/compound, purchased from Chengdu Ddossy Experimental Animals Co., Ltd. • 5.1.2 Experimental design: on the day of the test, 6 SD rats were randomly grouped according to their body weight; the animals were fasted with water available for 12 to 14 h one day before the administration, and were fed 4 h after the administration.
(§2) Before and after the administration, 0.15 ml of blood was taken from the orbit of the animals under isoflurane anesthesia and placed in an EDTAK2 centrifuge tube. The blood was centrifuged at 5000 rpm and 4° C. for 10 min to collect plasma. The blood collection time points for the intravenous administration group and intragastric administration group were: 0, 5 min, 15 min, 30 min, 1 h, 2 h, 4 h, 6 h, 8 h, and 24 h. Before analysis and detection, all samples were stored at −80° C., and a quantitative analysis of samples was performed using LC-MS/MS.

[4] = Pharmacokinetic test in mice; type: in vivo, ICR mice
Experimental: as §1, with “5.2.1” for “5.1.1”, “ICR mice, 20-25” for “SD rats, about 220”, “18 mice/compound.” for “6-8 weeks old, 6 rats/compound,”, “5.2.2” for “5.1.2”, “18 ICR mice” for “6 SD rats”, “weights.” for “weight;”
as §2, with “0.06 mL” for “0.15 ml”, “intravenous” for “intravenous administration”, “0 min,” for “0,”

[5] = male, Sprague-Dawley, iv, rat plasma, i.v. 2.5 mg/kg
[6] = male, ICR, iv, mouse plasma, i.v. 2.5 mg/kg

Chain of PARP7 (Q7Z3E1 whole entry): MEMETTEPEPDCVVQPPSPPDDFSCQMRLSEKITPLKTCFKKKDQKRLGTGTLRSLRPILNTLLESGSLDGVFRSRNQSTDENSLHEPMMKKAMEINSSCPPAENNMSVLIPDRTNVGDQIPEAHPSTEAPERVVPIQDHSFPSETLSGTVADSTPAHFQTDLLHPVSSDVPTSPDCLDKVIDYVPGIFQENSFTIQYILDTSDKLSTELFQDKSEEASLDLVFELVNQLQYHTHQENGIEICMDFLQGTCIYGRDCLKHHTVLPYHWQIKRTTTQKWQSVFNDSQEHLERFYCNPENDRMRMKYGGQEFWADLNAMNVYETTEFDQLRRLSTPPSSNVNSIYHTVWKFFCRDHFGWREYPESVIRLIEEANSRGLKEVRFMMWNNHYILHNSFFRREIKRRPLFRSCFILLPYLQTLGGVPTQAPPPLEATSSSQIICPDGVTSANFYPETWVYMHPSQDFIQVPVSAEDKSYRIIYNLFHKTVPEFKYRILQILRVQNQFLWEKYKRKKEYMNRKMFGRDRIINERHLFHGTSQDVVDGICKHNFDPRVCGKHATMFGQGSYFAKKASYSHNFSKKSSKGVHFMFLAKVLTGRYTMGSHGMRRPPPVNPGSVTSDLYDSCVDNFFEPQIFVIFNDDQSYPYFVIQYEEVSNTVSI

CCc1cc2ncc(CN3CC=C(c4ccc(C(=O)NC)nc4)CC3)cc2[nH]c1=O [Compound 14, 1′-((7-ethyl-6-oxo-5,6-dihydro-1,5-naphthyridin-3-yl)methyl)-N-methyl-1′,2′,3′,6′-tetrahydro-[3,4′-bipyridine]-6-carboxamide]
IC50 ([1]; MDA-MB-436, 168 h, 7 days incubation, CellTiter-Glo): 0.0032 µM | inhibition at 10 µM ([1]; MDA-MB-436 cells, 10 μM, read-out: Max inh. % 10 μM): 89.1% | IC50 [2]: 0.04 µM | AUC(0-t) [3, 5]: 84.2 µg·h/mL | clearance [3, 5]: 0.494 mL/min/kg | Vd ([3]; male, Sprague-Dawley, iv, rat plasma, i.v. 2.5 mg/kg, read-out: Vdss): 0.164 L/kg | AUC(0-t) ([3]; male, Sprague-Dawley, po, rat plasma, i.g. 10 mg/kg): 248 µg·h/mL | F ([3]; rat, i.g. 10 mg/kg): 73.8% | AUC(0-t) [4, 6]: 220 µg·h/mL | clearance [4, 6]: 0.164 mL/min/kg | Vd ([4]; male, ICR, iv, mouse plasma, i.v. 2.5 mg/kg, read-out: Vdss): 0.112 L/kg | AUC(0-t) ([4]; male, ICR, po, mouse plasma, i.g. 10 mg/kg): 829 µg·h/mL | F ([4]; mouse, i.g. 10 mg/kg): 94.3%
